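Assay format: 96-well plates, 48-hour exposure. GI50 marks 50% less growth.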 Active and inactive are the calls of the source. Cut-off read from the data, not from the text of the source: active = GI50 up to about 1.1 µM and inactive = higher.
Legend:
Test in all cases: growth of human tumour cells (NCI), 48 h
ACHN = test system: ACHN
LXFL 529 = test system: LXFL 529
OVCAR-4 = test system: OVCAR-4
SK-OV-3 = test system: SK-OV-3
LOX IMVI = test system: LOX IMVI
HOP-62 = test system: HOP-62
NCI-H226 = test system: NCI-H226
SK-MEL-5 = test system: SK-MEL-5
HCC 2998 = test system: HCC 2998
UACC-62 = test system: UACC-62
Malme-3M = test system: Malme-3M
NCI-H23 = test system: NCI-H23
SNB-75 = test system: SNB-75
U-251 = test system: U-251
SN12C = test system: SN12C
UO-31 = test system: UO-31
786-0 = test system: 786-0
SF-295 = test system: SF-295
CCRF-CEM = test system: CCRF-CEM
MDA-N = test system: MDA-N

Measured: GI50

CC1CCC23COC(=O)C2C(O)CCC3C1(C)CC(O)c1ccoc1 (stereo not given)
inactive: ACHN > 100 µM | LXFL 529 > 100 µM | OVCAR-4 > 100 µM | SK-OV-3 > 100 µM | LOX IMVI > 100 µM | HOP-62 > 100 µM | NCI-H226 > 100 µM | SK-MEL-5 > 100 µM | HCC 2998 > 100 µM | UACC-62 > 100 µM | Malme-3M > 100 µM | NCI-H23 > 100 µM | SNB-75 41.3 µM | U-251 > 100 µM | SN12C > 100 µM | UO-31 > 100 µM | 786-0 > 100 µM | SF-295 > 100 µM | CCRF-CEM > 100 µM

COc1cccc2c1C(=O)c1c(O)c3c(c(O)c1C2=O)C[C@@](O)(C(=O)CO)CC3OC1CC(N(C)CCOCC(OC(C)=O)OC(C)=O)C(O)C(C)O1 (stereo not given in full)
active: ACHN > 0.01 µM | LXFL 529 > 0.01 µM | OVCAR-4 > 0.01 µM | SK-OV-3 > 0.01 µM | LOX IMVI > 0.01 µM | HOP-62 > 0.01 µM | NCI-H226 > 0.01 µM | SK-MEL-5 > 0.01 µM | HCC 2998 > 0.01 µM | UACC-62 > 0.01 µM | Malme-3M > 0.01 µM | NCI-H23 > 0.01 µM | SNB-75 > 0.01 µM | U-251 > 0.01 µM | SN12C > 0.01 µM | UO-31 > 0.01 µM | 786-0 > 0.01 µM | SF-295 > 0.01 µM | CCRF-CEM > 0.01 µM

O=C1c2ccccc2C(=O)c2c(NCCCNCCO)ccc(NCCCNCCO)c21
inactive: ACHN 4.51 µM | LXFL 529 3.85 µM | OVCAR-4 9.82 µM | SK-OV-3 14.6 µM | LOX IMVI 3.5 µM | HOP-62 5.35 µM | NCI-H226 1.61 µM | SK-MEL-5 13.4 µM | MDA-N 7.48 µM | HCC 2998 5.37 µM | UACC-62 9.42 µM | Malme-3M 13.9 µM | NCI-H23 10.7 µM | SNB-75 7.13 µM | U-251 5.36 µM | SN12C 4 µM | UO-31 13.1 µM | 786-0 4.79 µM | SF-295 7.33 µM | CCRF-CEM 3.08 µM

CCCCCCCCCc1cc(=O)c2ccc(OCc3ccccc3)cc2o1
inactive: ACHN > 100 µM | LXFL 529 73.8 µM | OVCAR-4 83.2 µM | SK-OV-3 > 100 µM | LOX IMVI > 100 µM | HOP-62 > 100 µM | NCI-H226 34.7 µM | SK-MEL-5 97.9 µM | HCC 2998 > 100 µM | UACC-62 > 100 µM | Malme-3M 25.8 µM | NCI-H23 > 100 µM | SNB-75 30.8 µM | U-251 > 100 µM | SN12C > 100 µM | UO-31 > 100 µM | 786-0 > 100 µM | SF-295 > 100 µM | CCRF-CEM 65.2 µM

O=C(CC(=O)c1ccccc1)C(=O)Nc1ccc(Cl)cc1
inactive: ACHN > 100 µM | LXFL 529 > 100 µM | OVCAR-4 > 100 µM | SK-OV-3 > 100 µM | LOX IMVI > 42 µM | HOP-62 > 100 µM | NCI-H226 > 100 µM | SK-MEL-5 > 100 µM | HCC 2998 > 64.3 µM | UACC-62 > 100 µM | Malme-3M > 100 µM | NCI-H23 > 100 µM | SNB-75 > 64 µM | U-251 > 100 µM | SN12C > 100 µM | UO-31 > 100 µM | 786-0 > 67.6 µM | SF-295 > 100 µM | CCRF-CEM > 100 µM

O=C(/C=C/c1ccccc1F)c1ccc(Cl)c(Cl)c1
inactive: ACHN > 88.1 µM | LXFL 529 18.3 µM | OVCAR-4 44.4 µM | SK-OV-3 > 100 µM | LOX IMVI 15.4 µM | HOP-62 > 100 µM | NCI-H226 > 100 µM | SK-MEL-5 33.5 µM | HCC 2998 24.7 µM | UACC-62 52.8 µM | Malme-3M > 92.9 µM | NCI-H23 14.2 µM | SNB-75 39.3 µM | U-251 > 10 µM | SN12C 35.6 µM | UO-31 40.9 µM | 786-0 17.3 µM | SF-295 39.3 µM | CCRF-CEM 23.3 µM
